Earlier results on two molecules are cited in patent publication US20080009496A1, “MUTAGENIC HETEROCYCLES” (Koronis Pharmaceuticals, Inc., priority 2003, published 2008).

In series [1] the test system is HIV. Particulars: in vitro.
The conditions of series [2]: deamination product of 5-aza-dC.

As to `Nc1ncn([C@H]2C[C@H](O)[C@@H](CO)O2)c(=O)n1` [5-aza-dC, 5-aza-2′-deoxycytidine], the “inhibition of HIV replication” value in series [1] is on record as “inhibit HIV replication in vitro”.
For `O=c1ncn([C@H]2C[C@H](O)[C@@H](CO)O2)c(=O)[nH]1` [5-aza-dU, 5-aza-2′-deoxyuridine], the antineoplastic activity entry in series [2] is recorded as “loss of antineoplastic activity”.
